Experimental data as given in US20250381242A1 (INVAIO SCIENCES, INC., priority 2024, published 2025).
Residues, ends and D or L forms follow the SMILES beside them. No end group written: not given here.

Assays:
L. crescens = conditions: 10 μM
E. coli = experiment: Bacterial growth inhibition by OD600 absorbance, E. coli; format: cell-based, E. coli (DH5-alpha); conditions: peptide 10 μM, 24 hours at 37° C., OD 600 nm
Experimental: (§1) Antimicrobial activity of antimicrobial peptides was tested against the agricultural microbial pests A. tumefaciens, E. amylovora, E. coli, and X. citri, using OD absorbance measurement to detect bacterial growth.
(§2) Antimicrobial peptides were synthesized using solid phase peptide synthesis method and resuspended in 10% DMSO to a 1 mM stock concentration. The stock solution was aliquoted in cryovials and stored at −80° C.
(§3) An aliquot of 198 μl of the bacterial culture was added to each well in a 96-well plate and 2 μl of a 1 mM peptide stock solution was added to each well, for a final treatment concentration of 10 μM of a given peptide. Media only wells were included to control for contamination. The positive controls were 50 μg/ml oxytetracycline hydrochloride and 500 μg/ml streptomycin sulfate. A 0.1% DMSO treatment was included as a negative control.
(§4) An initial absorbance reading of the bacterial suspensions was taken at 600 nm. Then, the bacteria were grown in an incubator at 30° C. (A. tumefaciens, E. amylovora, X. citri) or 37° C. (E. coli) for 24 hours, after which the final absorbance reading was measured. Using the initial and final absorbance reading compared to negative and positive controls, the percent inhibition of the bacterial strain by given peptide treatment was determined.

A. tumefaciens = conditions: 24 h, 10 μM
E. amylovora = conditions: 24 h, 10 μM
X. citri = experiment: Bacterial growth inhibition by OD600 absorbance, X. citri; format: cell-based, X. citri subsp. citri (ATCC 49118); conditions: peptide 10 μM, 24 hours at 30° C., OD 600 nm
Experimental: as §1, §2, §3, §4

| Compound | growth inhibition, L. crescens (L. crescens) | growth inhibition, E. coli (E. coli) [%] | growth inhibition, A. tumefaciens (A. tumefaciens) | growth inhibition, E. amylovora (E. amylovora) | growth inhibition, X. citri (X. citri) [%] |
| --- | --- | --- | --- | --- | --- |
| GLLKKIAKKAKKALKKLGY [compound 74] | <90% | <90 | 100.00% | 100.00% | 100.00 |
| CSCC[C@H](NC(=O)CNC(=O)[C@H](C)NC(=O)[C@H](CCC(=O)O)NC(=O)[C@H](CCCCN)NC(=O)[C@H](C)NC(=O)[C@@H](NC(=O)CNC(=O)[C@H](CCCCN)NC(=O)[C@H](CC(C)C)NC(=O)[C@H](CC(C)C)NC(=O)[C@H](CC(=O)O)NC(=O)CNC(=O)[C@H](Cc1ccccc1)NC(=O)[C@H](C)NC(=O)CN)C(C)C)C(=O)N[C@@H](CCCCN)C(=O)N[C@@H](CC(C)C)C(=O)N[C@@H](CC(C)C)C(=O)N[C@@H](CC(N)=O)C(=O)N[C@@H](CCSC)C(=O)N[C@@H](C)C(=O)N[C@@H](CCC(N)=O)C(=O)N[C@@H](CS)C(=O)N[C@@H](CCCCN)C(=O)N[C@@H](CC(C)C)C(=O)N[C@@H](CO)C(=O)NCC(=O)N[C@@H](CCCCN)C(=O)N[C@@H](CS)C(=O)O [compound 19] (H-GAFGDLLKGVAKEAGMKLLNMAQCKLSGKC-OH; N-terminus and C-terminus assumed) | <90% |  | <90% | <90% |  |
| LNWGALLKHLLK [compound 139] | <90% | <90 | 100.00% | 100.00% | <90 |
| KWLKKWLKKWLK [compound 103] | <90% | 98.34 | 100.00% | 100.00% | <90 |
| KKLIKVFAKGFKKAKKLFKGIG [compound 52] | <90% | <90 | 100.00% | 100.00% | 100.00 |
| KWKSFIKNLEKVLKKGPILANLVSIV [SEQ ID NO: 23] | greater than 90% |  | greater than 90% | greater than 90% |  |
| GWWRRTVDKVRNAGRKVAGFASKACGALGH [SEQ ID NO: 13] | greater than 90% |  | greater than 90% | greater than 90% |  |
| KFWSLLKKALRLWANVL [SEQ ID NO: 76] | greater than 90% |  | greater than 90% | greater than 90% |  |
| IWSFLIKAATKLLPSLFGGGKKDS [SEQ ID NO: 39] | greater than 90% |  |  |  |  |
| KKFLHSAKKWLKAFVKLFKNW [SEQ ID NO: 33] | greater than 90% |  | greater than 90% |  |  |
| VKLYPVKLYP [compound 143] |  | <90 | <90% | <90% | <90 |
| KVVKQWPIGKVVKKVVKKVVK [compound 58] |  | <90 | <90% | <90% | <90 |
| KKAAAAAAAAAAAAWAAAAAAKKKK [compound 70] |  | <90 | <90% | <90% | <90 |
| GWGDTFLKTMAKIAKVGPKLLHS [compound 48] |  | <90 | <90% | <90% | <90 |
| KKKKWKLFKKIGIGKFL [compound 75] |  | <90 | <90% | 100.00% | 100.00 |
| GWRTLLKKAEVKTVGKLALKHYL [compound 32] |  | <90 | <90% | <90% | <90 |

| Compound | growth inhibition, L. crescens (L. crescens) | growth inhibition, E. coli (E. coli) [%] | growth inhibition, A. tumefaciens (A. tumefaciens) | growth inhibition, E. amylovora (E. amylovora) | growth inhibition, X. citri (X. citri) [%] |
| --- | --- | --- | --- | --- | --- |
| GMWSKILGHLIR [compound 137] |  | <90 | <90% | 100.00% | <90 |
| DLWNSIKDMAAAAGRAALNAVTGMVNQ [compound 29] |  | <90 | <90% | <90% | <90 |
| ALKSLLATLSKAKKKKLKTLLAALSK [compound 31] |  | <90 | 100.00% | 100.00% | 100.00 |
| IRIKIRIKIRIK [compound 123] |  | <90 | <90% | <90% | <90 |
| KLRKLFRKLLKLIRKLLR [compound 65] |  | 95.59 | <90% | <90% | <90 |
| SWLSKTAKKLENSAKKRISEGIAIAIQGGPR [compound 11] |  | 100.00 | 99.35% | 100.00% | 100.00 |
| FAKKLAKKLKKLAKKLAK [compound 80] |  | <90 | 98.82% | 100.00% | <90 |
| NAGSLLSGWG [compound 144] |  | <90 | <90% | <90% | <90 |
| FKKLKKLFSKLWNWK [compound 84] |  | 96.39 | 100.00% | 100.00% | <90 |
| KWLKKWLKWLKK [compound 102] |  | 100.00 | 100.00% | 100.00% | <90 |
| KKKKKKAAAFAAAAAFAAWAAFAAA [compound 51] |  | <90 | <90% | <90% | <90 |
| MQFITDLIKKAVDFIKGLFGNK [compound 43] |  | 94.72 | <90% | <90% | <90 |
| NKVKEWIKYLKSLFS [compound 96] |  | <90 | 100.00% | 100.00% | <90 |
| FQWQRNMRKVR [compound 124] |  | <90 | <90% | <90% | <90 |
| KWKLFKKIPLAKKF [compound 100] |  | <90 | <90% | <90% | <90 |
| KWLLKLKLKLLK [compound 125] |  | <90 | <90% | <90% | <90 |
